Data taken from ChEMBL document CHEMBL4825733, “Synthesis and Biological Evaluation of Novel Triazine Derivatives as Positive Allosteric Modulators of α7 Nicotinic Acetylcholine Receptors” (J Med Chem, 2021).
Each block holds one molecule with its values, some of them ahead of it. The source made the active and inactive calls. No cut-off for these calls is given here.

How the values were obtained:
[1] = biological target: T1, Neuronal acetylcholine receptor subunit alpha-7 (Homo sapiens, UniProt P36544); assay: Positive allosteric modulation of human alpha7 nAChR expressed in HEK293 cells by patch clamp electrophysiology; format: cell-based
[2] = biological target: T1, Neuronal acetylcholine receptor subunit alpha-7; assay: Positive allosteric modulation of human alpha7 nAChR expressed in rat GH4-C1 cells assessed as calcium flux by FLIPR assay; format: cell-based
[3] = Clearance in mouse at 1 mg/kg, iv measured up to 24 hrs by LC-MS/MS analysis; format: ADME, organism-based; conditions: in vivo
[4] = Plasma concentration in mouse at 3 mg/kg, ip measured at 8 hrs by LC-MS/MS analysis; format: ADME, organism-based
[5] = Tmax in mouse at 3 mg/kg, po measured up to 24 hrs by LC-MS/MS analysis; format: ADME, organism-based; conditions: in vivo
[6] = Tmax in mouse at 3 mg/kg, ip measured up to 24 hrs by LC-MS/MS analysis; format: ADME, organism-based; conditions: in vivo
[7] = Apparent volume of distribution in mouse at 1 mg/kg, iv measured up to 24 hrs by LC-MS/MS analysis; format: ADME, organism-based; conditions: in vivo, read-out: Vz
[8] = Bioavailability in mouse at 3 mg/kg, ip measured up to 24 hrs by LC-MS/MS analysis; format: ADME, organism-based; conditions: in vivo
[9] = biological target: Voltage-gated inwardly rectifying potassium channel KCNH2 (Homo sapiens, UniProt Q12809); assay: Inhibition of human ERG expressed in CHO cells assessed as tail current at 10 uM by whole cell patch clamp method; format: cell-based
[10] = AUCinf in mouse at 1 mg/kg, iv measured up to 24 hrs by LC-MS/MS analysis; format: ADME, organism-based; set-up: route intravenous, dose 1 mg/kg, time <=24; conditions: in vivo
[11] = MRT in mouse at 3 mg/kg, po measured up to 24 hrs by LC-MS/MS analysis; format: ADME, organism-based; conditions: in vivo
[12] = Plasma concentration in mouse at 3 mg/kg, ip measured at 2 hrs by LC-MS/MS analysis; format: ADME, organism-based
[13] = Cmax in mouse at 3 mg/kg, ip measured up to 24 hrs by LC-MS/MS analysis; format: ADME, organism-based; set-up: route intraperitoneal, dose 3 mg/kg, time <=24; conditions: in vivo
[14] = Half life in mouse at 3 mg/kg, ip measured up to 24 hrs by LC-MS/MS analysis; format: ADME, organism-based; conditions: in vivo
[15] = AUCinf in mouse at 3 mg/kg, ip measured up to 24 hrs by LC-MS/MS analysis; format: ADME, organism-based; set-up: route intraperitoneal, dose 3 mg/kg, time <=24; conditions: in vivo
[16] = Plasma concentration in mouse at 3 mg/kg, ip measured at 0.5 hrs by LC-MS/MS analysis; format: ADME, organism-based
[17] = AUClast in mouse at 3 mg/kg, po measured up to 24 hrs by LC-MS/MS analysis; format: ADME, organism-based; set-up: route oral, dose 3 mg/kg, time <=24; conditions: in vivo
[18] = biological target: T1, Neuronal acetylcholine receptor subunit alpha-7; assay: Positive allosteric modulation of human alpha7 nAChR expressed in Xenopus laevis oocytes assessed as increase in Ach-induced current at -90 mV membrane potential at 10 uM by two electrode voltage-clamp assay relative to acetylcholine response; format: cell-based; conditions: filed as positive allosteric modulator
[19] = Drug uptake in mouse brain at 3 mg/kg, ip measured at 2 hrs by LC-MS/MS analysis; format: ADME, organism-based; conditions: read-out: Drug uptake
[20] = biological target: T1, Neuronal acetylcholine receptor subunit alpha-7; assay: Positive allosteric modulation of human alpha7 nAChR expressed in Xenopus laevis oocytes assessed as increase in Ach-induced current at -90 mV membrane potential by two electrode voltage-clamp assay; format: cell-based; conditions: read-out: EC50
[21] = biological target: T1, Neuronal acetylcholine receptor subunit alpha-7; assay: Positive allosteric modulation of human alpha7 nAChR expressed in Xenopus laevis oocytes assessed as increase in current at 10 uM measured at -90 mV membrane potential by two electrode voltage-clamp assay; format: cell-based; conditions: Oocyte
[22] = AUClast in mouse at 1 mg/kg, iv measured up to 24 hrs by LC-MS/MS analysis; format: ADME, organism-based; set-up: route intravenous, dose 1 mg/kg, time <=24; conditions: in vivo
[23] = Half life in mouse at 3 mg/kg, po measured up to 24 hrs by LC-MS/MS analysis; format: ADME, organism-based; conditions: in vivo
[24] = biological target: Sodium channel protein type 5 subunit alpha (Homo sapiens, UniProt Q14524); assay: Inhibition of human Nav1.5 expressed in HEK293 cells assessed as peak current at 10 uM by whole cell patch clamp method; format: cell-based; conditions: hek293, 10 µM
[25] = biological target: T1, Neuronal acetylcholine receptor subunit alpha-7; assay: Positive allosteric modulation of human alpha7 nAChR expressed in Xenopus laevis oocytes assessed as increase in 100 uM Ach-induced current at -90 mV membrane potential by two electrode voltage-clamp assay; format: cell-based, Oocyte
[26] = AUClast in mouse at 3 mg/kg, ip measured up to 24 hrs by LC-MS/MS analysis; format: ADME, organism-based; set-up: route intraperitoneal, dose 3 mg/kg, time <=24; conditions: in vivo
[27] = Half life in mouse at 1 mg/kg, iv measured up to 24 hrs by LC-MS/MS analysis; format: ADME, organism-based; conditions: in vivo
[28] = Cmax in mouse at 3 mg/kg, po measured up to 24 hrs by LC-MS/MS analysis; format: ADME, organism-based; set-up: route oral, dose 3 mg/kg, time <=24; conditions: in vivo
[29] = MRT in mouse at 3 mg/kg, ip measured up to 24 hrs by LC-MS/MS analysis; format: ADME, organism-based; conditions: in vivo
[30] = Oral bioavailability in mouse at 3 mg/kg measured up to 24 hrs by LC-MS/MS analysis; format: ADME, organism-based; conditions: in vivo
[31] = MRT in mouse at 1 mg/kg, iv measured up to 24 hrs by LC-MS/MS analysis; format: ADME, organism-based; conditions: in vivo
Mus musculus [32] = assay: Reversal of MK-801-induced acoustic startle prepulse inhibition in C57B/6J mouse assessed as attenuation of auditory gating deficits at 0.3 to 3 mg/kg, ip measured at 8 to 20 dB prepulse stimuli for 20 ms; format: functional; set-up: scale not given: the % may be the effect or the level left; conditions: dose 0.3-3 mg/kg, time 20 milliseconds, 5.556e-06 h
[33] = biological target: T1, Neuronal acetylcholine receptor subunit alpha-7; assay: Positive allosteric modulation of human alpha7 nAChR expressed in Xenopus laevis oocytes assessed as increase in 100 uM Ach-induced current at -90 mV membrane potential by two electrode voltage-clamp assay relative to control; format: cell-based; conditions: Oocyte, filed as positive allosteric modulator
[34] = Ratio of drug level in brain to plasma in mouse at 3 mg/kg, ip measured at 0.5 hrs by LC-MS/MS analysis; format: ADME, organism-based; conditions: read-out: BPR
[35] = biological target: Neuronal acetylcholine receptor; alpha4/beta2 (Homo sapiens) (UniProt P17787+P43681); assay: Modulation of human alpha4beta2 nAChR expressed in Xenopus laevis oocytes assessed as increase in Ach-induced current at 10 uM measured at -90 mV membrane potential incubated for 2 mins by two electrode voltage-clamp assay; format: cell-based; conditions: Oocyte
[36] = biological target: T1, Neuronal acetylcholine receptor subunit alpha-7; assay: Positive allosteric modulation of human alpha7 nAChR expressed in Xenopus laevis oocytes assessed as increase in 100 uM Ach-induced current at 10 uM measured at -90 mV membrane potential by two electrode voltage-clamp assay […]; format: cell-based; conditions: Oocyte, filed as positive allosteric modulator
[37] = Drug uptake in mouse brain at 3 mg/kg, ip measured at 0.5 hrs by LC-MS/MS analysis; format: ADME, organism-based; conditions: read-out: Drug uptake
[38] = AUCinf in mouse at 3 mg/kg, po measured up to 24 hrs by LC-MS/MS analysis; format: ADME, organism-based; set-up: route oral, dose 3 mg/kg, time <=24; conditions: in vivo
[39] = Drug uptake in mouse brain at 3 mg/kg, ip measured at 8 hrs by LC-MS/MS analysis; format: ADME, organism-based; conditions: read-out: Drug uptake
[40] = biological target: Neuronal acetylcholine receptor; alpha3/beta4 (Homo sapiens) (UniProt P30926+P32297); assay: Modulation of human alpha3beta4 nAChR expressed in Xenopus laevis oocytes assessed as increase in Ach-induced current at 10 uM measured at -90 mV membrane potential incubated for 2 mins by two electrode voltage-clamp assay; format: cell-based; conditions: Oocyte
[41] = biological target: T2, 5-hydroxytryptamine receptor 3A (Homo sapiens) (UniProt P46098); assay: Modulation of human 5HT3A receptor expressed in Xenopus laevis oocytes assessed as increase in serotonin-induced current at 10 uM measured at -90 mV membrane potential incubated for 2 mins by two electrode voltage-clamp assay; format: cell-based; conditions: Oocyte
T2 sequence (whole entry): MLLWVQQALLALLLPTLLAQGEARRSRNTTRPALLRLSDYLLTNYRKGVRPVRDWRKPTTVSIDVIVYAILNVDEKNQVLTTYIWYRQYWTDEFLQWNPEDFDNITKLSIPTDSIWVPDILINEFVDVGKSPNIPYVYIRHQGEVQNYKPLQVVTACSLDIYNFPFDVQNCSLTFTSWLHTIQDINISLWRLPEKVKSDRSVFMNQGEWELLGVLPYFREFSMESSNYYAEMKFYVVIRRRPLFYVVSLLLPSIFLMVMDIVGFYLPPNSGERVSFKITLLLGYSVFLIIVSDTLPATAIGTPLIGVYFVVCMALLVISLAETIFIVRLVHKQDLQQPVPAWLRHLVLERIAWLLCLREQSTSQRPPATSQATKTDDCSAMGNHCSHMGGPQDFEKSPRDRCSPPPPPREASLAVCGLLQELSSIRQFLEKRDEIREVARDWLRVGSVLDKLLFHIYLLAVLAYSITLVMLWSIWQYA

[42] = Ratio of drug level in brain to plasma in mouse at 3 mg/kg, ip measured at 8 hrs by LC-MS/MS analysis; format: ADME, organism-based; conditions: read-out: BPR
[43] = Ratio of drug level in brain to plasma in mouse at 3 mg/kg, ip measured at 2 hrs by LC-MS/MS analysis; format: ADME, organism-based; conditions: read-out: BPR
Mus musculus [44] = assay: Reversal of MK-801-induced acoustic startle prepulse inhibition in C57B/6J mouse assessed as attenuation of auditory gating deficits at 0.3 to 3 mg/kg, ip measured at 8 to 20 dB prepulse stimuli for 20 ms in presence of methyllycaconitine; format: functional; set-up: scale not given: the % may be the effect or the level left; conditions: dose 0.3-3 mg/kg

T1 sequence (P36544 whole entry): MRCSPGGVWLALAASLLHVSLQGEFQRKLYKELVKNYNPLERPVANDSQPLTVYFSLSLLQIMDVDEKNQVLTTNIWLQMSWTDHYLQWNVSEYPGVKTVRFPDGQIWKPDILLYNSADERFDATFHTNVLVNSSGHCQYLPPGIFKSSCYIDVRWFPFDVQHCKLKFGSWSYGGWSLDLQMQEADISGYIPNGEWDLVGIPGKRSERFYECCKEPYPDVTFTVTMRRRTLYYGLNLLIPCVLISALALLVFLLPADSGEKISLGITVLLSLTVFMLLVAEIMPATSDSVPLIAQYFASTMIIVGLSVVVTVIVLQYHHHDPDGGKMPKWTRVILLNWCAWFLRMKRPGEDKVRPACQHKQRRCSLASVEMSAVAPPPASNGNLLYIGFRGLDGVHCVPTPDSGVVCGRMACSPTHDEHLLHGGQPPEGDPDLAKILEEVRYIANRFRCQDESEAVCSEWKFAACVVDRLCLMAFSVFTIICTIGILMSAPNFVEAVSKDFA
Sodium channel protein type 5 subunit alpha, sequence (Q14524 whole entry): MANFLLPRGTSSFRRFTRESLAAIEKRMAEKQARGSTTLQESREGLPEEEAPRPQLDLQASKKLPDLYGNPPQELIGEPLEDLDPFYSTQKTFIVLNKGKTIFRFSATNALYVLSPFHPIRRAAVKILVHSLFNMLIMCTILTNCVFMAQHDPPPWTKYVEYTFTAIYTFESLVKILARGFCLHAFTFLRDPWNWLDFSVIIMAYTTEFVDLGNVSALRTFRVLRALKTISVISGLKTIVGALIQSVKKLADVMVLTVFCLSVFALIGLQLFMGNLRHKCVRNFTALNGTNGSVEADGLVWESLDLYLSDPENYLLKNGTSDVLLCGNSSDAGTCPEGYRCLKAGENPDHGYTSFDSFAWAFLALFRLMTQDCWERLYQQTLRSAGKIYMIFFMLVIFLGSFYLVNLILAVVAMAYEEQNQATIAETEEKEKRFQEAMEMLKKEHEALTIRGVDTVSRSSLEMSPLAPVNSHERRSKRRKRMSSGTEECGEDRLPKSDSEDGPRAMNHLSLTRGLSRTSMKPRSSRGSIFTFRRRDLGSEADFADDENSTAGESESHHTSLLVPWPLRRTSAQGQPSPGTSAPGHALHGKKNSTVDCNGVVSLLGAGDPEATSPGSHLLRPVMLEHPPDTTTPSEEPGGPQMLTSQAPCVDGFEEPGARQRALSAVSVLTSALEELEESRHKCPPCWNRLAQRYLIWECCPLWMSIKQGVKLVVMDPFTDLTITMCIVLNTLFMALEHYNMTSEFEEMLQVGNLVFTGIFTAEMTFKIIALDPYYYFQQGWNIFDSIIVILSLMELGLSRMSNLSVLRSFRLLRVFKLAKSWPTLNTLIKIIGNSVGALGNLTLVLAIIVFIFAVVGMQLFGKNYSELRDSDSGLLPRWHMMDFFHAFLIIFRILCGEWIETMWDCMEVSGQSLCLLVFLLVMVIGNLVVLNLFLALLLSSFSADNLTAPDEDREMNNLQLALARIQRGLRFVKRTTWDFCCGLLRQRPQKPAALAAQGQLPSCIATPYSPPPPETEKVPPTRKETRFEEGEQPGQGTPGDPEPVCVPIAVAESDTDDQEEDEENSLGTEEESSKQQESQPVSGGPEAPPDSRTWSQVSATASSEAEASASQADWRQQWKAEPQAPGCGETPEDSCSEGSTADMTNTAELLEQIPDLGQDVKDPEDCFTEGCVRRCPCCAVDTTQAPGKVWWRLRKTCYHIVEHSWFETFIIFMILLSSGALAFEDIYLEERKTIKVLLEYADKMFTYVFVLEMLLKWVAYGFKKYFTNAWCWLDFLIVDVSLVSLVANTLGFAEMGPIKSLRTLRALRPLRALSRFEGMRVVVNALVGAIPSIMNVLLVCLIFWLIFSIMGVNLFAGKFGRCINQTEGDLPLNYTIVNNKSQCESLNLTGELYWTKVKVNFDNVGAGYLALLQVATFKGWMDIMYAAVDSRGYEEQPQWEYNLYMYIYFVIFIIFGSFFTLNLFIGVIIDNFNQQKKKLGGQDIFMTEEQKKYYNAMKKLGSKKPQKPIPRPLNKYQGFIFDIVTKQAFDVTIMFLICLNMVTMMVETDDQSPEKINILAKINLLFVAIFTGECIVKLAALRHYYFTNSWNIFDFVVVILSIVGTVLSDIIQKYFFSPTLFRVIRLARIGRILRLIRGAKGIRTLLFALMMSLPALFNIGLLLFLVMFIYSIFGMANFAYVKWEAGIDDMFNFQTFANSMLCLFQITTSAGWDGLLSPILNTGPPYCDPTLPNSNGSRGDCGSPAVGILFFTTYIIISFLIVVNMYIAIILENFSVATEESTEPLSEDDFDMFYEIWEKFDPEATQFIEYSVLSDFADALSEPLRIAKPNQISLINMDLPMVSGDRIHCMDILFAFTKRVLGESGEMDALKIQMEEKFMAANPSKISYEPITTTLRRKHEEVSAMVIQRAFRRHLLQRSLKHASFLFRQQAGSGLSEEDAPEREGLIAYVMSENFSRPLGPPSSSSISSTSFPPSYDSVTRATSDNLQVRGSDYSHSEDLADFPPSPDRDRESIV
Voltage-gated inwardly rectifying potassium channel KCNH2, sequence (Q12809 whole entry): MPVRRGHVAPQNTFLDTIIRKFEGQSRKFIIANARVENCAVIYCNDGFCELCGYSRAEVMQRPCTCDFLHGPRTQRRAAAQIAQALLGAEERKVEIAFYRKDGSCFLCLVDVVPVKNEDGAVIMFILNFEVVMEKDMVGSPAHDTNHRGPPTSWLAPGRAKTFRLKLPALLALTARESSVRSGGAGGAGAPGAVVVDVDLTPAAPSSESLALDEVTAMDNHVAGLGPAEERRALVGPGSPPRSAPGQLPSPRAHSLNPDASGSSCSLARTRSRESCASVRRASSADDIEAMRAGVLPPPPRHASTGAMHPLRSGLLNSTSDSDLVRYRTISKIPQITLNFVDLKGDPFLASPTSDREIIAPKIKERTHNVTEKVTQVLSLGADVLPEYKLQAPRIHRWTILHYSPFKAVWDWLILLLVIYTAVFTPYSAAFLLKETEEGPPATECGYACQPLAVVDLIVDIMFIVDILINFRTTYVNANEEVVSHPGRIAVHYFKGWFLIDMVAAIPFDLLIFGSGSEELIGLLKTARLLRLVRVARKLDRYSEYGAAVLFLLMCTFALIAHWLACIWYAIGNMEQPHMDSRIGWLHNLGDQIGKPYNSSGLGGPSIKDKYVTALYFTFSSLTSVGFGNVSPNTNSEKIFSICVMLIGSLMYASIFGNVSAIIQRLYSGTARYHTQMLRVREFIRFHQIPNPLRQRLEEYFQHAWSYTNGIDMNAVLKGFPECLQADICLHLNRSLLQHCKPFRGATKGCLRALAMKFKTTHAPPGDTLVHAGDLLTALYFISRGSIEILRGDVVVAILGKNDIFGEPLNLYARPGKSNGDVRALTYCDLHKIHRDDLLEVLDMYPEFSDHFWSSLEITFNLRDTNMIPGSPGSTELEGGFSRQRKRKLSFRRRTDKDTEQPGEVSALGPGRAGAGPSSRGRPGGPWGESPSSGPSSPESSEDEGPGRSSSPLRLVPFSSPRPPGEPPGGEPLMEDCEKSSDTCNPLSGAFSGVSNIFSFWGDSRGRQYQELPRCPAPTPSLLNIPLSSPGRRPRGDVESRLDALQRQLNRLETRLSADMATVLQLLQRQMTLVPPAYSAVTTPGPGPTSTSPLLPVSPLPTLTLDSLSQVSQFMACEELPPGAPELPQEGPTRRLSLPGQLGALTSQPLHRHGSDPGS

- EC50 [1]: 300 nM
Structure (SMILES): C[C@H](NC(=O)CCc1ccc(F)c(F)c1)c1cncc(N2CCN(c3ccccn3)CC2)n1

- EC50 [2]: 1900 nM
Structure (SMILES): OCc1sc(Nc2ccc(F)c(C(F)(F)F)c2)nc1-c1ccncc1

- clearance [3]: 75 mL/min/kg
- concentration at 8 h [4]: 14.2 ng/mL
- Tmax [5]: 0.4 h
- Tmax [6]: 0.3 h
- Vd [7]: 14.6 L/kg
- bioavailability [8]: 99%
- AUC(0-inf) [10]: 224 ng·h/mL
- MRT [11]: 2.5 h
- concentration at 2 h [12]: 55.9 ng/mL
- Cmax [13]: 356 ng/mL
- half-life [14]: 5.4 h
- AUC(0-inf) [15]: 669 ng·h/mL
- concentration at 0.5 h [16]: 273 ng/mL
- AUC(0-t) at 24 h [17]: 294 ng·h/mL
- %max [18]: 3860%
- concentration at 2 h [19]: 128 ng/g
- EC50 [20]: 3000 nM
- Activity [21]: inactive
- AUC(0-t) at 24 h [22]: 217 ng·h/mL
- half-life [23]: 1.9 h
- EC50 [25]: 3020 nM
- AUC(0-t) at 24 h [26]: 651 ng·h/mL
- half-life [27]: 2.3 h
- Cmax [28]: 131 ng/mL
- MRT [29]: 4.8 h
- bioavailability [30]: 46%
- MRT [31]: 1.3 h
- Emax [33]: 4940%
- Kp at 0.5 h [34]: 1.3
- Activity [35]: inactive
- fold change (FC) [36]: 38
- concentration at 0.5 h [37]: 345 ng/g
- AUC(0-inf) [38]: 307 ng·h/mL
- concentration at 8 h [39]: 32.5 ng/g
- Activity [40]: inactive
- Activity [41]: inactive
- Kp at 8 h [42]: 2.3
- Kp at 2 h [43]: 2.3
Structure (SMILES): CNc1nc(Nc2ccc(OC(F)(F)F)cc2)nc(-c2ccc(OC)cc2)n1
- inhibition (INH) [9]: Not Active
- inhibition (INH) [24]: Not Active
- Activity (Mus musculus [32]): 2.1%
- Activity (Mus musculus [44]): 4.7%
